SMILES strings stand for the structures.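 Values below derive from 48-hour exposures of cells grown in 96-well plates, with endpoints linearly interpolated between the two concentrations bracketing the appropriate inhibition level. GI50: concentration for 50% inhibition of growth. TGI: total growth inhibition.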

The subject of one assay is COLO 205 colon. Description: NCI anticancer screen, dose series, 48 h.
`Cc1cnc(NCCCN(C)C)c2c1[nH]c1ccc3cc(O)ccc3c12` yielded a TGI of 1.57 µM.
As to `CC1CCc2nc[nH]c(=O)c21` (stereo not given), the GI50 was over 100 µM and the TGI is over 100 µM.
`Cc1c(C(=O)CC(=O)C(=O)Nc2ccccc2C(F)(F)F)[n+](=O)c2ccccc2n1[O-]` displayed a TGI of 32.2 µM.
For the compound `Cc1cc(N(CCC#N)CCC#N)ccc1N=Nc1ccc(S(N)(=O)=O)cc1`, the TGI is over 100 µM.
With `CCOC1Oc2ccccc2C(=O)/C1=C/Nc1ccc(C(C)=O)cc1` (stereo not given), the GI50 was 55.2 µM and the TGI was over 100 µM.
Turning to `Cc1nc2c(ccc3ncccc32)[nH]1`, the TGI was over 100 µM.
Same read-out and setting: to `C1=C2/CC[C@H](Sc3ccccc3)C2C2(CCCCC/1)OCCO2` (stereo not given in full) belongs 37.8 µM.
In the case of `COC1/C=C/OC2(C)Oc3c(C)c(O)c4c(O)c(c(/C=N/Nc5ccc([N+](=O)[O-])cc5[N+](=O)[O-])c(O)c4c3C2=O)NC(=O)C(C)=C/C=C/C(C)C(O)C(C)C(O)C(C)C(OC(C)=O)C1C` (stereo not given), the GI50 is 2.8 µM and the TGI came out at 10.5 µM.
Take `O=C(CCc1nc(=S)[nH][nH]1)Nc1cc(Cl)c(Cl)cc1Cl`: the TGI was over 100 µM.
Same read-out and setting: next, `Nc1ccccc1S(=O)(=O)N(CC(=O)O)c1ccccc1`: over 100 µM; `Cc1cc(NS(=O)(=O)c2ccc(Nc3c4ccccc4nc4c(C(=O)N5CCN(CCOS(C)(=O)=O)CC5)cccc34)cc2)no1`: over 100 µM.
Regarding `C=CCO[C@H]1CO[C@H]2[C@@H]1OC[C@@H]2Oc1ccc(Nc2ccnc(Nc3ccc(O[C@H]4CO[C@H]5[C@@H]4OC[C@@H]5OCC=C)c(Cl)c3)n2)cc1Cl`, the GI50 is 1.6 µM and the TGI is 4.06 µM.
Compound `CCN(CC)N=Nc1c(C(N)=O)n[nH]c1C` returned a TGI of over 100 µM.
Compound `COc1cc2ccnc([C@@H](OC(=O)c3ccccc3)c3ccc(OC)c(OC)c3OC)c2cc1OC` came in with a TGI of over 100 µM.
In turn, `COc1ccc(CC2c3cc4c(cc3CCN2C)OCO4)c(C=O)c1OC` (stereo not given) showed a TGI of over 100 µM.
Compound `CCn1c(C)nn2c(=O)c3ccccc3nc2c1=O` had a TGI of over 100 µM.
Same read-out and setting: next, `O=C(O)CCNCCCNCCC(=O)O`: over 100 µM.
As for `CC(=O)[CH-]C(=O)c1ccccc1.CC(=O)[CH-]C(=O)c1ccccc1.CN(C)c1ccc([O-])cc1.CN(C)c1ccc([O-])cc1.Cl.[Ti+4]`, the GI50 is 14.9 µM and the TGI came out at 22.5 µM.
With `Cc1nc2sccn2c1-c1csc(Nc2ccccc2Cl)n1`, the GI50 is 5.87 µM and the TGI turned out to be 21 µM.
The like results for `Nc1nc(-n2c(-c3ccccc3)nc3c(Br)cc(Br)cc3c2=O)nnc1-c1cccc(Cl)c1Cl` were, in that order, 8.88 µM and over 100 µM.
Consider `NC1=NCCC1(c1ccccc1)c1ccccn1` (stereo not given), for which the TGI is over 100 µM.
On to `CCOC(=O)CCC1(C(=O)OCC)CCCCC1=O` (stereo not given), for which the TGI was over 100 µM.
With `COC(=O)c1ccccc1NC(=O)C(=O)Cc1nc2c3c(ccc2[nH]c1=O)C(=O)c1ccccc1C3=O`, the TGI is over 100 µM.
On the same count and under the same terms, next, `CCOC(=O)C(C)(C)Oc1ccc2c(-c3ccccc3)cc(=O)oc2c1`: 42.7 µM.
The same measure, in the same setting: to `CCCC1C(=O)CCc2c(OC)ccc(OC)c21` (stereo not given) belongs over 100 µM; to `O=C(Nc1nc2ccc([N+](=O)[O-])cc2s1)C(=O)C(C1OC(=O)c2ccccc21)[N+](=O)[O-]` (stereo not given), over 100 µM.
As for `CCC[CH2][Sn]([CH2]CCC)([S]c1cccc2cccnc12)[S]c1cccc2cccnc12`, the GI50 was 0.0592 µM and the TGI is 0.224 µM.
The compound `COC(=O)C1(C(C)C)CCc2c(OC)ccc(OC)c2C1=O` (stereo not given) yielded a TGI of over 100 µM.

For a further assay, the system named is SNB-75 CNS. The experiment in a line: NCI anticancer screen, dose series, 48 h.
Consider `Cc1cnc(NCCCN(C)C)c2c1[nH]c1ccc3cc(O)ccc3c12`, for which the TGI came to 1.87 µM.
As for `CC1CCc2nc[nH]c(=O)c21` (stereo not given), the GI50 is over 100 µM and the TGI is over 100 µM.
`Cc1cc(N(CCC#N)CCC#N)ccc1N=Nc1ccc(S(N)(=O)=O)cc1` came in with a TGI of over 100 µM.
On to `CCOC1Oc2ccccc2C(=O)/C1=C/Nc1ccc(C(C)=O)cc1` (stereo not given), for which the GI50 is 40.6 µM and the TGI was over 100 µM.
The compound `Cc1nc2c(ccc3ncccc32)[nH]1` registered a TGI of over 100 µM.
`C1=C2/CC[C@H](Sc3ccccc3)C2C2(CCCCC/1)OCCO2` (stereo not given in full) displayed a TGI of 88.2 µM.
With `COC1/C=C/OC2(C)Oc3c(C)c(O)c4c(O)c(c(/C=N/Nc5ccc([N+](=O)[O-])cc5[N+](=O)[O-])c(O)c4c3C2=O)NC(=O)C(C)=C/C=C/C(C)C(O)C(C)C(O)C(C)C(OC(C)=O)C1C` (stereo not given), the GI50 was 1.8 µM and the TGI turned out to be 10.3 µM.
Take `O=C(CCc1nc(=S)[nH][nH]1)Nc1cc(Cl)c(Cl)cc1Cl`: the TGI was over 100 µM.
The same measure, in the same setting: next, `Nc1ccccc1S(=O)(=O)N(CC(=O)O)c1ccccc1`: over 100 µM; `Cc1cc(NS(=O)(=O)c2ccc(Nc3c4ccccc4nc4c(C(=O)N5CCN(CCOS(C)(=O)=O)CC5)cccc34)cc2)no1`: over 100 µM.
`C=CCO[C@H]1CO[C@H]2[C@@H]1OC[C@@H]2Oc1ccc(Nc2ccnc(Nc3ccc(O[C@H]4CO[C@H]5[C@@H]4OC[C@@H]5OCC=C)c(Cl)c3)n2)cc1Cl`: the GI50 is 1.86 µM and the TGI worked out at 3.31 µM.
`CCN(CC)N=Nc1c(C(N)=O)n[nH]c1C` gave a TGI of over 100 µM.
Same read-out and setting: next, `COc1cc2ccnc([C@@H](OC(=O)c3ccccc3)c3ccc(OC)c(OC)c3OC)c2cc1OC`: over 100 µM.
Still for that read-out and setting: to `COc1ccc(CC2c3cc4c(cc3CCN2C)OCO4)c(C=O)c1OC` (stereo not given) belongs over 100 µM; to `CCn1c(C)nn2c(=O)c3ccccc3nc2c1=O`, over 100 µM; to `O=C(O)CCNCCCNCCC(=O)O`, over 100 µM.
Consider `CC(=O)[CH-]C(=O)c1ccccc1.CC(=O)[CH-]C(=O)c1ccccc1.CN(C)c1ccc([O-])cc1.CN(C)c1ccc([O-])cc1.Cl.[Ti+4]`, for which the GI50 is over 31.6 µM and the TGI is over 31.6 µM.
Take `Cc1nc2sccn2c1-c1csc(Nc2ccccc2Cl)n1`: the GI50 is 4.08 µM and the TGI came to 60.3 µM.
The like results for `Nc1nc(-n2c(-c3ccccc3)nc3c(Br)cc(Br)cc3c2=O)nnc1-c1cccc(Cl)c1Cl` were, in that order, 8.65 µM and 46.7 µM.
`NC1=NCCC1(c1ccccc1)c1ccccn1` (stereo not given) showed a TGI of over 100 µM.
Still for that read-out and setting: to `CCOC(=O)CCC1(C(=O)OCC)CCCCC1=O` (stereo not given) belongs over 100 µM; to `COC(=O)c1ccccc1NC(=O)C(=O)Cc1nc2c3c(ccc2[nH]c1=O)C(=O)c1ccccc1C3=O`, over 100 µM.

Values taken from PubChem BioAssay (NCI).
